# Active and inactive are the calls of the source. How the calls were made is not given here.
# Test system: rodent carcinogenicity bioassays, tumor incidence
# Assay: CCRIS carcinogenicity studies
# Procedure, shortened: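 Archive of carcinogenicity, mutagenicity, tumor promotion and tumor inhibition results drawn from journals, NCI reports and other sources, expert-reviewed; covers 1985-2011 and is no longer updated.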
compound,measurement,setting,value
COc1ccc([C@@H]2CC(=O)c3c(O)cc(O[C@@H]4O[C@H](CO[C@@H]5O[C@@H](C)[C@H](O)[C@@H](O)[C@H]5O)[C@@H](O)[C@H](O)[C@H]4O)cc3O2)cc1OC,carcinogen call,"Species: MOUSE, Strain/Sex: B6C3F1/FEMALE, Route: ORAL, Dose: 0, 1.25, 5% IN DIET FOR 96 WK FOLLOWED BY BASAL DIET FOR AN ADDITIONAL 8 WK (STUDY DURATION: 104 WK), Dose: 0, 1.25, 5% IN DIET FOR 96 WK FOLLOWED BY BASAL DIET FOR AN ADDITIONAL 8 WK (STUDY DURATION: 104 WK)",inactive; negative
same,carcinogen call,"Species: MOUSE, Strain/Sex: B6C3F1/MALE, Route: ORAL, Dose: 0, 1.25, 5% IN DIET FOR 96 WK FOLLOWED BY BASAL DIET FOR AN ADDITIONAL 8 WK (STUDY DURATION: 104 WK), Dose: 0, 1.25, 5% IN DIET FOR 96 WK FOLLOWED BY BASAL DIET FOR AN ADDITIONAL 8 WK (STUDY DURATION: 104 WK)",inactive; negative
CN(C)C(=O)Nc1cccc(C(F)(F)F)c1,carcinogen call,"Species: MOUSE, Strain/Sex: B6C3F1/FEMALE, Route: ORAL, Dose: 0, 500, 1000 PPM IN DIET FOR 103 WK (STUDY DURATION: 103-105 WK), Dose: 0, 500, 1000 PPM IN DIET FOR 103 WK (STUDY DURATION: 103-105 WK)",inactive; negative
same,carcinogen call,"Species: MOUSE, Strain/Sex: B6C3F1/FEMALE, Route: ORAL, Dose: 0, 500, 1000 PPM IN DIET FOR 103 WK (STUDY DURATION: 103-105 WK), Dose: 0, 500, 1000 PPM IN DIET FOR 103 WK (STUDY DURATION: 103-105 WK), Tumor Site: Type of Lesion: LIVER: HEPATOCELLULAR CARCINOMA OR ADENOMA",equivocal
same,carcinogen call,"Species: Mouse, Strain/Sex: CR CD-1/Female (60/Group), Route: Oral, Dose: 0, 10, 500, 2000 ppm of 96.1% fluometuron in diet for 104 wk, study duration 104 wk, Dose: 0, 10, 500, 2000 ppm of 96.1% fluometuron in diet for 104 wk, study duration 104 wk, Tumor Site: Type of Lesion: Lymphocytic lymphoma (highest dose only)",active; positive
same,carcinogen call,"Species: Mouse, Strain/Sex: CR CD-1/Male (60/Group), Route: Oral, Dose: 0, 10, 500, 2000 ppm of 96.1% fluometuron in diet for 104 wk, study duration 104 wk, Dose: 0, 10, 500, 2000 ppm of 96.1% fluometuron in diet for 104 wk, study duration 104 wk, Tumor Site: Type of Lesion: Lung: Primary pulmonary neoplasia",active; positive
same,carcinogen call,"Species: RAT, Strain/Sex: F344/FEMALE, Route: ORAL, Dose: 0, 125, 250 PPM IN DIET FOR 103 WK (STUDY DURATION: 103-105 WK), Dose: 0, 125, 250 PPM IN DIET FOR 103 WK (STUDY DURATION: 103-105 WK)",inactive; negative
same,carcinogen call,"Species: RAT, Strain/Sex: F344/MALE, Route: ORAL, Dose: 0, 125, 250 PPM IN DIET FOR 103 WK (STUDY DURATION: 103-105 WK), Dose: 0, 125, 250 PPM IN DIET FOR 103 WK (STUDY DURATION: 103-105 WK)",inactive; negative
same,carcinogen call,"Species: Rat, Strain/Sex: Fischer 344 CD-F/Female (60/Group), Route: Oral, Dose: 0, 10, 300, 1000 ppm of 96.1% fluometuron in diet for 2 yr, study duration 2 yr, Dose: 0, 10, 300, 1000 ppm of 96.1% fluometuron in diet for 2 yr, study duration 2 yr",inactive; negative
same,carcinogen call,"Species: Rat, Strain/Sex: Fischer 344 CD-F/Male (60/Group), Route: Oral, Dose: 0, 10, 300, 1000 ppm of 96.1% fluometuron in diet for 2 yr, study duration 2 yr, Dose: 0, 10, 300, 1000 ppm of 96.1% fluometuron in diet for 2 yr, study duration 2 yr",inactive; negative
CC(=O)OCN(N=O)c1ccccc1,carcinogen call,"Species: HAMSTER, Strain/Sex: SYRIAN/FEMALE, Route: SUBCUTANEOUS, Dose: 0, 1.56, 3.13 MG/KG/WK IN OLIVE OIL FOR LIFE (STUDY DURATION: 60 WK), Dose: 0, 1.56, 3.13 MG/KG/WK IN OLIVE OIL FOR LIFE (STUDY DURATION: 60 WK), Tumor Site: Type of Lesion: INJECTION SITE: TUMOR",active; positive
same,carcinogen call,"Species: HAMSTER, Strain/Sex: SYRIAN/FEMALE, Route: SUBCUTANEOUS, Dose: 0, 6.25, 12.5 MG/KG/WK IN OLIVE OIL FOR 4 WK (STUDY DURATION: 60 WK), Dose: 0, 6.25, 12.5 MG/KG/WK IN OLIVE OIL FOR 4 WK (STUDY DURATION: 60 WK)",inactive; negative
same,carcinogen call,"Species: HAMSTER, Strain/Sex: SYRIAN/MALE, Route: SUBCUTANEOUS, Dose: 0, 1.56, 3.13 MG/KG/WK IN OLIVE OIL FOR LIFE (STUDY DURATION: 60 WK), Dose: 0, 1.56, 3.13 MG/KG/WK IN OLIVE OIL FOR LIFE (STUDY DURATION: 60 WK)",inactive; negative
same,carcinogen call,"Species: HAMSTER, Strain/Sex: SYRIAN/MALE, Route: SUBCUTANEOUS, Dose: 0, 6.25, 12.5 MG/KG/WK IN OLIVE OIL FOR 4 WK (STUDY DURATION: 60 WK), Dose: 0, 6.25, 12.5 MG/KG/WK IN OLIVE OIL FOR 4 WK (STUDY DURATION: 60 WK)",inactive; negative
CCCCCN(CCCCC)N=O,carcinogen call,"Species: RAT, Strain/Sex: WISTAR/FEMALE, Route: SUBCUTANEOUS, Dose: 0, 62.5, 125, 250 MG/KG BW 1/WK FOR 25 WK (STUDY DURATION: 1 YR), Dose: 0, 62.5, 125, 250 MG/KG BW 1/WK FOR 25 WK (STUDY DURATION: 1 YR), Tumor Site: Type of Lesion: NASAL CAVITY: POLYPOID ADENOMA, LUNG: BRONCHIOALVEOLAR ADENOMA",active; positive
same,carcinogen call,"Species: RAT, Strain/Sex: WISTAR/MALE, Route: SUBCUTANEOUS, Dose: 0, 62.5, 125, 250 MG/KG BW 1/WK FOR 25 WK (STUDY DURATION: 1 YR), Dose: 0, 62.5, 125, 250 MG/KG BW 1/WK FOR 25 WK (STUDY DURATION: 1 YR), Tumor Site: Type of Lesion: NASAL CAVITY: POLYPOID ADENOMA, LUNG: BRONCHIOALVEOLAR ADENOCARCINOMA, BRONCHIOALVEOLAR ADENOMA",active; positive
O=C([O-])CN(CC(=O)[O-])CC(=O)[O-].[Cu+2],carcinogen call,"Species: RAT, Strain/Sex: WISTAR/MALE, Route: INTRAPERITONEAL, Tumor Site: Type of Lesion: KIDNEY: RENAL CELL CARCINOMA",active; positive
CN(C)C(=O)NN=O,carcinogen call,"Species: HAMSTER, Strain/Sex: SYRIAN/FEMALE, Route: SUBCUTANEOUS, Dose: 40 MG/KG 1/WK, Tumor Site: Type of Lesion: FORESTOMACH: SQUAMOUS CELL CARCINOMA, MAMMARY GLAND: ADENOCARCINOMA OR ADENOACANTHOMA, UTERUS: ADENOACANTHOMA, Tumor Site: Type of Lesion: FORESTOMACH: SQUAMOUS CELL CARCINOMA, MAMMARY GLAND: ADENOCARCINOMA OR ADENOACANTHOMA, UTERUS: ADENOACANTHOMA",active; positive
same,carcinogen call,"Species: HAMSTER, Strain/Sex: SYRIAN/MALE, Route: SUBCUTANEOUS, Dose: 40 MG/KG 1/WK, Tumor Site: Type of Lesion: FORESTOMACH: SQUAMOUS CELL CARCINOMA",active; positive
same,carcinogen call,"Species: MOUSE, Strain/Sex: C3H/FEMALE, Route: SUBCUTANEOUS, Dose: 80 MG/KG 1/WK (TOTAL AVE DOSE 1015 MG/KG), Tumor Site: Type of Lesion: LYMPHATIC SYSTEM: MALIGNANT LYMPHOMA",active; positive
same,carcinogen call,"Species: MOUSE, Strain/Sex: C3H/MALE, Route: SUBCUTANEOUS, Dose: 80 MG/KG 1/WK (TOTAL AVE DOSE 1073 MG/KG), Tumor Site: Type of Lesion: LYMPHATIC SYSTEM: MALIGNANT LYMPHOMA",active; positive
O=C1c2ccccc2C(=O)c2c(O)cccc21,carcinogen call,"Species: RAT, Strain/Sex: ACI/N/MALE, Route: ORAL, Dose: 0, 1% IN BASAL DIET FOR DURATION OF STUDY (STUDY DURATION: 480 D), Tumor Site: Type of Lesion: CECUM: ADENOMA, ADENOCARCINOMA, COLON: ADENOMA, ADENOCARCINOMA, LIVER: TUMOR, STOMACH: TUMOR, Tumor Site: Type of Lesion: CECUM: ADENOMA, ADENOCARCINOMA, COLON: ADENOMA, ADENOCARCINOMA, LIVER: TUMOR, STOMACH: TUMOR",active; positive
